One data set relates to CD1 female mice. In words: 5 FU myelotoxicity (bone marrow nucleated cells). In kind it is in vivo. The following applies: 5 FU 80 mg/kg i.p. alone; five days (FIG. 15).
Data set [1] relates to A9 mouse fibroblastic cells. In words: TNF-α-induced apoptosis and Go/G1 arrest (FACS, propidium iodide). Type of data set: cell-based.
Method: In order to test the effect of tyrphostins on the TNF-α-induced apoptosis of the cells, A9 mouse fibroblastic cells were incubated for two hours with cycloheximide (50 μg/ml) after which the various tyrphostins were added at a final concentration of 20 μM except AG1801 that was added at the final concentration of 5 μM. Following one hour incubation with the tyrphostins, TNF-α was added to the cells at a concentration of 0.2 ng/ml and the cells were incubated for an additional ten hours.
Another data set has as its system A-9 cells. The data set is described as follows: TNF-induced cytotoxicity in vitro. The following applies: AG (20 μM). Type of data set: cell-based, mouse.
Data set [2] deals with CD1 mice. In words: LPS-induced lethal toxicity in vivo. The following applies: tyrphostin 20 mg/kg i.p. two hours prior to E. coli LPS […] i.p.
Method: In addition, the effect of tyrphostin on TNF mediated cytotoxicity in vivo was determined in mice injected with LPS (which induces TNF toxicity in vivo). E. coli LPS the concentration of 1.3 mg/mouse was injected i.p. to CD1 mice. While control mice were injected in addition with the vehicle only, the remaining mice were injected with the various tyrphostins (20 mg/kg) i.p. two hours prior to LPS injection.
The subject of data set [3] is CD1 mice. The data set is described as follows: Cisplatin nephrotoxicity: serum creatinine and BUN. Type of data set: in vivo. The following applies: tyrphostin 10 mg/kg i.p. 2 h before cisplatin 14 mg/kg i.p.; four days (FIG. 5).
From the text: Mice in the control croup received injections of the vehicle only (a stock solution of ethanol: chemaphore (50:50) diluted with saline). […] Each group consisted of three mice and the results are shown as mean levels of the measured parameter±SD.
Data set [4] concerns CD1 mice. In words: Reduction of cisplatin-caused mouse mortality. Type of data set: in vivo. The note with it: cisplatin 14 mg/kg alone.
From the text: (§1) 6 weeks old female CD1 mice were divided into the following groups:
For data set [5], the system named is CD1 mice. In words: Histopathological analysis of kidneys and small intestines after cisplatin. In kind it is in vivo.
Method: Histopathological analysis of the kidneys and small intestines of the non-treated and treated mice was performed using slices from formaline fixed tissues stained with hematoxylin eosin.
Another data set concerns MCA-105 fibrosarcoma. The data set is described as follows: MCA-105 fibrosarcoma lung metastases in mice. Type of data set: in vivo. The note with it: for weight of the lungs of tumor bearing mice: single agent: AG1801 5 mg/kg, cisplatin 10 mg/kg or doxorubicin 10 mg/kg, 4 days after inoculation (FIG. 25).
In data set [6] the test system is Lewis Lung carcinoma cells. In words: Lewis lung carcinoma lung metastases in mice. In kind it is in vivo. The following applies: agent by itself: cisplatin 4 mg/kg or AG1714 20 mg/kg (FIG. 21B).
Method: (§2) 2×10^5/mouse MCA-105 fibrosarcoma cells or Lewis Lung carcinoma cells and 5×10^4/mouse B-16 melanoma cells were injected into the tail vein of C57BL mice.
(§3) Twenty-four days after tumor inoculation, mice were sacrificed, lungs weighed and the number of metastases were scored. Each group contained 5 mice and the results are expressed as the means lungs' weights±SE.
A further data set relates to SK-28 human melanoma. The data set is described as follows: SK-28 human melanoma tumor xenografts in nude mice. In kind it is in vivo. Background: Xenograft models place foreign cells or tissue in a host animal.
Data set [7] concerns human ovary carcinoma (OVCAR-3) cells. In words: OVCAR-3 human ovary carcinoma tumor volume in athymic mice. Type of data set: in vivo. The following applies: agent by itself: cisplatin 4 mg/kg or AG1714 20 mg/kg; twenty days (FIG. 23).
Method: Athymic mice were inoculated subcutaneously (s.c.) with human ovary carcinoma (OVCAR-3) cells (3×10^6 cells/site). […] Twenty days post tumor inoculation the short (S) and long (L) diameters of the tumor were measured and the tumor volume (V) was calculated according to the formula:
Each group contained 5 mice and the results are expressed as the means±SE.
For data set [8], the system named is CD1 mice.
From the text: Each experimental group consisted of three mice and the results shown are the mean number of cells in a group±SD.
The subject of data set [9] is CD1 mice. The data set is described as follows: Reduction of doxorubicin-caused mouse mortality. Type of data set: in vivo.
Method: as §1
i. Mice injected intraperitoneally (i.p.) with doxorubicin (20 mg/kg);
CD1 mice were divided into the following five groups:
i. Mice receiving, a single i.p. injection of 20 mg/kg of doxorubicin;
iii. Mice receiving a single i.p. injection of 20 mg/kg of AG1782 and two hours later an i.p. injection of 20 mg/kg of doxorubicin;
iv. Mice receiving a single i.p. injection of 20 mg/kg of AG126 and two hours later an i.p. injection of 20 mg/kg of doxorubicin.
The % mortality in each of the above groups was determined by scoring the number of dead mice every day until 10 days after injection.
Data set [10] has as its system primary rat cardiomyocytes cultures. In words: Doxorubicin-induced cardiotoxicity in vitro (cellular beating). Type of data set: cell-based. The note with it: doxorubicin 10 μM alone; 24 hours.
Method: The cardiomyocyte cultures were divided into the following, four groups receiving:
Cells receiving doxorubicin at a concentration of 10 μM; and
The rate of beats-of clusters of cardiomyocytes (“mini-hearts”) was determined 24 hours after beginning of incubation.
The subject of data set [11] is CD1 mice. In words: Doxorubicin lymphotoxicity (weight of spleen and thymus). In kind it is in vivo. The note with it: doxorubicin 10 mg/kg i.p. alone; 72 hours.
Method: 72 hours after doxorubicin administration the mice were sacrificed and the weight of the spleen and thymus of the mice was determined as parameters of lymphotoxicity. Each experimental group consisted of three mice and the results are mean no. of cells±SD. As control, the mice received an injection of the vehicle only instead of doxorubicin.
The subject of data set [12] is CD1 mice. In words: Doxorubicin induced myelotoxicity (femur bone marrow nucleated cells, CFU). The note with it: doxorubicin 10 mg/kg i.p. alone; 3 days (FIG. 12B).
Method: CD1 mice were divided into the following groups:
Mice receiving an i.p. injection of doxorubicin (10 mg/kg) alone;
Mice receiving one injection of the vehicle and two hours later an i.p. injection of doxorubicin (10 mg kg,).
3 days later, the number of bone marrow nucleated cells and colony forming units (CFU) in the femurs of the treated mice was determined (Nikerich, D. A., et al., J. Immunopharmacol., 8:299-313, 1986). Each group contained 3 mice and the results are expressed as a means±SD.
The number of femur nucleated bone marrow cells in the treated mice was determined three days (FIG. 13A) and at various times (FIG. 13B) post doxorubicini administration.
CD1 mice were divided into five groups:
Mice receiving the vehicle alone;
Mice receiving doxorubicin (10 mg/kg) alone;
Three days after doxorubicin administration, the mice were sacrificed and the number of nucleated cells in bone marrow was determined as described above.
The mark [13] stands for this setting: Cyclophosphamide (50 mg/kg) alone (−), 72 hours.
The mark [14] stands for this setting: Table 6A, Doxorubicin (8 mg/kg) alone.
The mark [15] stands for this setting: Table 5A, Doxorubicin (4 mg/kg) alone.
Where [16] appears, read: Table 5A, Doxorubicin (8 mg/kg) alone.
The mark [17] stands for this setting: Table 5B, Doxorubicin (4 mg/kg) alone.
[18] abbreviates: Table 5B, Doxorubicin (8 mg/kg) alone.

Entries after “also recorded” stand apart in the source; their conditions may differ. Read-outs that look alike come from different tables or passages of the source.

Method for A-9 cells: Following one hour incubation with the tyrphostins, TNF-α was added to the cells at a concentration of 0.2 ng/ml and the cells were incubated for an additional ten hours. At the end of ten hours, the cell cultures were analyzed by FACS using propidium iodide and the extent of apoptosis in each of the cell cultures (seen as DNA fragmentation) was determined (see Novogrodsky, A., et al., Science, 264:1319-1322, 1994).
The effect of tyrphostins on TNF-induced cytotoxicity was determined in vitro using A-9 cells as described in Example 39 above.
Method for B-16 melanoma: Mice were injected i.v. with 2×10^5 B-16 melanoma cells and 4 days after tumor inoculation each mouse received a single i.p. injection of doxorubicin (4 mg/kg or 8 mg/kg).
Method for CD1 female mice: CD1 female mice were divided into the following groups:
A control group receiving a single i.p. injection of the vehicle only (co-solvent: propylene carbonate-cremophor-saline);
Mice receiving a single i.p. injection of 5-fluorouracil (5 FU) at a dose of 80 mg/kg;
Five days after the administration of 5 FU to the mice, the mice were sacrificed and the number of nucleated cells in the bone marrow of one femur, were counted. Each group of mice consisted of two or three mice and the results shown are the mean number of cells counted±SD.
Method for MCA-105 fibrosarcoma: as §2, §3
C57BL mice were divided into the following groups:
Mice injected i.v. at the age of 6 weeks with 2×10^5 fibrosarcoma MCA105 cells and 4 days' later, receiving an injection comprising the vehicle only;
Mice injected i.v. at the age of 6 weeks with 2×10^5 fibrosarcoma MCA105 cells and 4 days' later, injected with 10 mg/kg of doxorubicin;
Method for SK-28 human melanoma: CD1 athymic mice (nu/nu) were inoculated i.v. with 4×10^5/mouse SK-28 human melanoma. Doxorubicin (4 mg/kg) was injected i.p. 4 days after tumor inoculation.

As to `O=c1[nH]cc(F)c(=O)[nH]1` [5 FU, 5-fluorouracil], in the data set on CD1 female mice, the “number of nucleated cells in the bone marrow” value is “decrease in the number of nucleated cells”.
`N#CC(C#N)=Cc1ccc([N+](=O)[O-])c(O)c1` [AG126]: the “Apoptosis (%)” value in data set [1] (TNF-α (0.2 ng/ml) +, ten hours, cycloheximide 50 μg/ml, tyrphostins 20 μM, except AG1801 5 μM) is 19.4%; in data set [1] (TNF-α −, cycloheximide 50 μg/ml, tyrphostins 20 μM, except AG1801 5 μM) it was 8.3%. Further, the “live cells, % of control” value with A-9 cells (TNF 0.05 ng/ml) was 75 % of control; in the data set on A-9 cells (TNF 0.2 ng/ml), 49 % of control; with A-9 cells (TNF 1.0 ng/ml), 33 % of control; in the data set with A-9 cells (TNF None) it was 107 % of control. Further, in the data set on CD1 mice [2], the “% alive mice” value is given as 80%. Besides, the alive/total with CD1 mice [2] was 4/5.
Consider `N#CC(=Cc1ccc([N+](=O)[O-])cc1)C(N)=S` [AG1744], for which the “nephrotoxicity of cisplatin (serum creatinine level)” value with CD1 mice [3] was “markedly reduced the nephrotoxicity of cisplatin”.
With `N.N.[Cl][Pt][Cl]` [Cisplatin, cisplatin], the mortality result in the data set with CD1 mice [4] is recorded as “all the mice in the group receiving cisplatin alone died within ten days”. Moreover, the histopathology of kidneys entry with CD1 mice [5] (cisplatin 14 mg/kg alone (FIG. 7B)) is “large proteinaceous plaques in the proximal tubals; also recorded: large proteinaceous plaques in the proximal tubules”. Moreover, the “histopathology of small intestine” value in the data set with CD1 mice [5] (cisplatin 14 mg/kg alone (FIG. 7E)) is “severe necrosis and disintegration of the columnar intestinal epithelial cells; also recorded: severe necrosis and damage”. Also, the “anti-tumor effect (lungs' weight, established lung metastases)” value with MCA-105 fibrosarcoma (agent by itself: cisplatin 4 mg/kg or AG1714 20 mg/kg i.p., 24 days (FIG. 21A)) is reported as “markedly inhibited the growth”; in [6], “partial anti-tumor effect”; with B-16 melanoma (agent alone: Cisplatin (4 mg/kg) or AG1714 (20 mg/kg) (FIG. 21C)), “not effective”. Further, the “weight of the lungs of tumor bearing mice” value in the data set with MCA-105 fibrosarcoma was “reduced the weight of the mice's lungs to a weight similar to that of control non tumor bearing mice”; in the data set on SK-28 human melanoma (single agent: cisplatin or AG1801 (FIG. 26)) it was “reduced the weight of the lungs of the tumor bearing mice to an extent”. Further, the “anti-tumor effect (tumor volume)” value in data set [7] is “marked anti-tumor effect”.
For the compound `O=P1(N(CCCl)CCCl)NCCCO1` (stereo not drawn) [Cyclophosphamide, cyclophosphamide], in the data set with CD1 mice [8] (setting [13]), the “Nucleated cells in bone marrow (× 10^6)” value is 6.2 × 10^6, the “Spleen” value stood at 52 mg and the “Thymus” value is reported as 39 mg. For the same compound, the “number of nucleated cells in the bone marrow, spleen and thymus” value in the data set with CD1 mice [8] (cyclophosphamide 50 mg/kg alone) was “significant reduction in the number of nucleated cells”.
Take `COc1cccc2c1C(=O)c1c(O)c3c(c(O)c1C2=O)C[C@@](O)(C(=O)CO)C[C@@H]3O[C@H]1C[C@H](N)[C@H](O)[C@H](C)O1` [Doxorubicin, doxorubicin]: the “mortality of the mice” value in the data set on CD1 mice [9] (10 i.p. doxorubicin injections 5 mg/kg over 21 days, alone) was “high mortality”. Moreover, the “% mortality” value in the data set with CD1 mice [9] (doxorubicin 20 mg/kg i.p. alone, within a week after injection) is given as 90%. Moreover, the “Cellular beating (beats/min)” value in data set [10] is 15 ± 1.3 beats/min. Besides, the “number of beats per minute relative to control cultures” value in data set [10] is recorded as “about 20%”. The “weight of spleens and thymuses” value in the data set on CD1 mice [11] is recorded as “significant reduction in the weight of spleens”. Moreover, the “Mortality (dead/total)” value in the data set on MCA-105 fibrosarcoma (Table 6A, Doxorubicin (4 mg/kg) alone) was 0/5; in the data set on MCA-105 fibrosarcoma (setting [14]), 5/8; with B-16 melanoma (setting [15]) it was 0/4; in the data set with B-16 melanoma (setting [16]), 3/4; with B-16 melanoma (setting [17]), 0/6; in the data set on B-16 melanoma (setting [18]), 7/8. For the same compound, the “Lungs' weight (mg + SEM)” value is recorded as 170 ± 4 mg in the data set on MCA-105 fibrosarcoma (setting [14]) and 306 ± 12 mg with B-16 melanoma (setting [17]). The figures for the “Mortality, percent in brackets” value with MCA-105 fibrosarcoma (setting [14]), with B-16 melanoma (setting [16]) and in the data set on B-16 melanoma (setting [18]) were 62.5%, 75% and 88%, respectively. The “weight of the lungs of tumor bearing mice” value with MCA-105 fibrosarcoma is “reduced the weight of the mice's lungs to a weight similar to that of control non tumor bearing mice”. Further, the “growth of the SK-28 tumor (lungs' weight, metastases)” value in the data set on SK-28 human melanoma (agent by itself: doxorubicin 4 mg/kg or AG1714 20 mg/kg, 24 days (FIG. 22)) is “markedly suppressed the growth”. In addition, the “No. of lungs' metastases (+ SD)” value is on record as 7 ± 4 in the data set with B-16 melanoma (setting [15]) and 1 with B-16 melanoma (setting [16]). Besides, the “reduction in CFU” value in the data set with CD1 mice [12] came to 55%.
Regarding TNF-α, in data set [1] (TNF-α (0.2 ng/ml) alone), the “Cell cycle % G1” value is 85.8%, the “Cell cycle % G2 + M” value worked out at 6.6% and the “Cell cycle % S” value is on record as 7.6%. This compound also showed an Apoptosis (%) in [1] (Table 9, TNF-α (0.2 ng/ml) alone) of 28.7%.

The values above are taken from US6426366B1, “Pharmaceutical compositions comprising tyrphostins” (priority 1996, dated 2002).
